# Assays:
# [1] = Stability of mRNA-LNPs according to storage temperature and duration; assay type: physicochemical; conditions: for Normalized EE % D-1 / Size (nm) D-1 / PDI D-1: day 1; for Normalized EE % D-7 / PDI D-7 / Size (nm) D-7: day 7; for Normalized EE % D-30 / PDI D-30 / Size (nm) D-30: day 30
# Method: Stability of fLuc mRNA-LNPs produced using various ionizable lipids according to the method of Example 27, was assessed by storing the LNPs at 4° C. and 25° C. At 1, 7, and 30 days post-manufacture, the size, PDI, and encapsulation efficiency (EE) of each mRNA-LNPs samples were measured using the methods described in Experimental Examples 2 and 3.
# [2] = test system: IL-1β mRNA level in HEK-293T cells; conditions: human
# [3] = mRNA encapsulation efficiency (Quant-IT RiboGreen RNA assay); assay type: physicochemical; conditions: mRNA encapsulation efficiency of mRNA-LNP made with the ionizable lipid; average of two measurements
# Method: The mRNA encapsulation efficiency (EE, %) of LNPs containing mRNA was measured using the Quant-IT™ RiboGreen® RNA assay kit (Invitrogen, USA).
# The diluted samples were added to each well of a 96-well plate. Group A (without Triton X-100) was supplemented with 50 μL of 1×TE buffer, while Group B (with Triton X-100) was supplemented with 50 μL of 1×TE buffer containing 2% Triton-X 100. To release the encapsulated mRNA, the LNPs were treated with Triton-X 100 and incubated at 37° C. for 10 minutes. Subsequently, 100 μL of ribogreen reagent was added to each well. The fluorescence intensities of Group A and Group B were measured using a multi-plate reader (λex 480 nm, λem 520 nm), and mRNA encapsulation efficiency (%) was calculated using Equation 1 below. The encapsulation efficiency for each LNP was determined as the average of two independent measurements.
# [4] = test system: IL-6 mRNA level in HEK-293T cells; conditions: human
# [5] = Size, polydispersity index and surface charge of mRNA-LNP (Malvern Zetasizer Nano ZS90); assay type: physicochemical; conditions: for PDI / size (nm) Number: mRNA-LNP made with the ionizable lipid at its optimal formulation (Table 2); for size (nm) Number: diluted with PBS to 1 μg/mL mRNA; for Zeta (mV): surface charge of mRNA-LNP made with the ionizable lipid at its optimal formulation (Table 2)
# Method: Each mRNA-LNPs produced in Example 27 was diluted with PBS to a final mRNA concentration of 1 μg/mL. The size, polydispersity index (PDI), and surface charge of the mRNA-LNPs were then measured using a Malvern Zetasizer Nano ZS90 (Malvern Instruments, UK).
# For particles intended for systemic administration, such as via blood vessels, the particle size must be less than 200 nm in order to pass through the endothelial capillaries of the liver. In addition, the size distribution is considered uniform only when the PDI is 0.3 or less, which enables consistent and efficient therapeutic effects (Non-patent document 3 [Danaei, M. et al). Pharmaceutics 2018, 10, 57]).
# female C57BL/6 mice = experiment: Protein expression efficiency of fLuc mRNA-LNPs after intramuscular injection (IVIS whole-body luminescence); assay type: in vivo; conditions: for Total flux 1 hour / Total flux 3 hours / Total flux 6 hours / Total flux 48 hours / Total flux 72 hours / Total flux: fLuc mRNA-LNP, intramuscular injection, luminescence at injection site, mice; for Total flux 1 hour: 1 hour after administration; for Total flux 3 hours: 3 hours after administration; for Total flux 6 hours: 6 hours after administration; for Total flux 48 hours: 48 hours after administration; for Total flux 72 hours: 72 hours after administration; for Total flux: after administration; for Fold increase in total flux at 3 h, MC3: relative to control LNP formulated with MC3; for Fold increase in total flux at 3 h, MC3 / Fold increase in total flux at 3 h, SM-102: 3 hours after intramuscular injection; for Fold increase in total flux at 3 h, SM-102: relative to control LNP formulated with SM-102
# Method: fLuc mRNA-LNPs formulated using various ionizable lipids were prepared according to the method described in Example 27 and administered in vivo via intramuscular (I. M.) or intravenous (IV.) injection to compare the resulting protein expression efficiency in vivo. As a control, EGFP mRNA-LNPs formulated with commercially available ionizable lipids MC3 or SM-102 were used. All mRNA-LNPs were administered at equal mRNA doses per body weight across different concentration groups (n≥4).
# Specifically, the dose of mRNA-LNPs was adjusted to 0.1-0.5 mg/kg of body weight, and the formulation was administered via I.M. or I.V. injection to female C57BL/6 mice (6-10 weeks old, Orient Bio, Korea) Subsequently, […], whole-body luminescence images were acquired using an in vivo imaging system (IVIS Lumina III, PerkinElmer, Walzam, MA, USA). To assess protein expression levels, 200 μL of D-luciferin (15 mg/mL) was administered via intraperitoneal (I.P.) injection 10 minutes prior to imaging. During image acquisition, the animals were anesthetized by inhalation of 3% isoflurane in 97% medical grade oxygen. In addition, the acquired luminescence images were quantitatively analyzed using imaging software (Living Image Software Version 4.4; PerkinElmer, USA).
# After intramuscular injection of the fLuc mRNA-LNPs, the luminescence intensity at the injection site was measured over time.
# Furthermore, the luminescence intensity at the injection site 3 hours after intramuscular injection was measured, and the relative protein expression efficiency was compared to that of control LNPs formulated with MC3 or SM-102.
# [6] = test system: CCL3 mRNA level in HEK-293T cells; conditions: human
# [7] = test system: CCL2 mRNA level in HEK-293T cells; conditions: human
Structure (SMILES),Normalized EE % D-1 ([1]; fLuc mRNA-LNP stored at 4° C.),Size (nm) D-1 ([1]; fLuc mRNA-LNP stored at 4° C.),Normalized EE % D-7 ([1]; fLuc mRNA-LNP stored at 4° C.),PDI D-7 ([1]; fLuc mRNA-LNP stored at 4° C.),Size (nm) D-7 ([1]; fLuc mRNA-LNP stored at 4° C.),Normalized EE % D-30 ([1]; fLuc mRNA-LNP stored at 4° C.),PDI D-30 ([1]; fLuc mRNA-LNP stored at 4° C.),Size (nm) D-30 ([1]; fLuc mRNA-LNP stored at 4° C.),EE (%) [3],PDI [5],size (nm) Number [5],Zeta (mV) [5],Total flux 1 hour (female C57BL/6 mice),Total flux 3 hours (female C57BL/6 mice),Total flux 6 hours (female C57BL/6 mice),Total flux 48 hours (female C57BL/6 mice),Total flux 72 hours (female C57BL/6 mice),Total flux (female C57BL/6 mice),"Fold increase in total flux at 3 h, MC3 (female C57BL/6 mice)","Fold increase in total flux at 3 h, SM-102 (female C57BL/6 mice)",also measured
"CCCCCCCCCCCOC(=O)CCCCCN(CCCCCCCC(=O)OC(CCCCCCCC)CCCCCCCC)CC(O)CCCCNC(=O)c1ccc[nH]1 (stereo not shown) [Compound 16, Heptadecan-9-yl 8-((2-hydroxy-6-(1H-pyrrole-2-carboxamido)hexyl)(6-oxo-6-(undecyloxy)hexyl)amino)octanoate]",90.9%,132.2 nm,91.5%,0.138,137.1 nm,86.9%,0.069,141.5 nm,91%,0.101,132 nm,−7.87 mV,1.11E+07,5.26E+07,3.64E+07,1.71E+06,1.40E+06,1.61E+07,4.26,0.47,Normalized EE % D-1 ([1]; fLuc mRNA-LNP stored at 25° C.): 90.9%; PDI D-1 ([1]; fLuc mRNA-LNP stored at 25° C.): 0.101; Size (nm) D-1 ([1]; fLuc mRNA-LNP stored at 25° C.): 132.2 nm; Normalized EE % D-7 ([1]; fLuc mRNA-LNP stored at 25° C.): 89.1%; PDI D-7 ([1]; fLuc mRNA-LNP stored at 25° C.): 0.059; Size (nm) D-7 ([1]; fLuc mRNA-LNP stored at 25° C.): 137.7 nm; Normalized EE % D-30 ([1]; fLuc mRNA-LNP stored at 25° C.): 84.4%; PDI D-30 ([1]; fLuc mRNA-LNP stored at 25° C.): 0.093; Size (nm) D-30 ([1]; fLuc mRNA-LNP stored at 25° C.): 145.1 nm; IL-1β Average [2]: 0.74; IL-6 Average [4]: 0.97; CCL3 Average [6]: 2.31; CCL2 Average [7]: 0.79
"CCCCCCCCCCCOC(=O)CCCCCN(CCCCCCCC(=O)OC(CCCCCCCC)CCCCCCCC)CC(O)CCCCNC(=O)c1[nH]ccc1O (stereo not shown) [Compound 21, Heptadecan-9-yl 8-((2-hydroxy-6-(3-hydroxy-1H-pyrrole-2-carboxamido)hexyl)(6-oxo-6-(undecyloxy)hexyl)amino)octanoate]",,,,,,,,,92%,0.155,112 nm,−4.55 mV,1.98E+07,1.29E+08,9.56E+07,3.51E+06,1.66E+06,1.25E+07,10.42,1.14,"IL-1β Average [2]: 1.18; IL-6 Average [4]: 1.39; protein expression compared to the control group (SM-102) (female C57BL/6 mice; 3 hours post intramuscular injection, in words): significantly higher protein expression; CCL3 Average [6]: 1.82; CCL2 Average [7]: 0.63"
"CCCCCCCCCCCOC(=O)CCCCCN(CCCCCCCC(=O)OC(CCCCCCCC)CCCCCCCC)CC(O)CCCCNC(=O)c1cnc(O)n1C (stereo not shown) [Compound 40, Heptadecan-9-yl 8-((2-hydroxy-6-(2-hydroxy-1-methyl-1H-imidazole-5-carboxamido)hexyl)(6-oxo-6-(undecyloxy)hexyl)amino)octanoate]",92.3%,106.8 nm,89.0%,0.106,155.6 nm,87.5%,0.044,146.2 nm,92%,0.154,107 nm,−1.73 mV,7.92E+06,1.50E+07,6.60E+06,1.10E+06,8.29E+05,6.46E+05,1.22,0.13,Normalized EE % D-1 ([1]; fLuc mRNA-LNP stored at 25° C.): 92.3%; PDI D-1 ([1]; fLuc mRNA-LNP stored at 25° C.): 0.154; Size (nm) D-1 ([1]; fLuc mRNA-LNP stored at 25° C.): 106.8 nm; Normalized EE % D-7 ([1]; fLuc mRNA-LNP stored at 25° C.): 90.9%; PDI D-7 ([1]; fLuc mRNA-LNP stored at 25° C.): 0.112; Size (nm) D-7 ([1]; fLuc mRNA-LNP stored at 25° C.): 146.8 nm; Normalized EE % D-30 ([1]; fLuc mRNA-LNP stored at 25° C.): 89.3%; PDI D-30 ([1]; fLuc mRNA-LNP stored at 25° C.): 0.091; Size (nm) D-30 ([1]; fLuc mRNA-LNP stored at 25° C.): 144.8 nm

# From US20260184669A1, “LIPID COMPOUND AND COMPOSITION FOR DELIVERY OF ACTIVE SUBSTANCE” (KOREA RESEARCH INSTIUTE OF BIOSCIENCE AND BIOTECHNOLOGY, priority 2022, published 2026)
